In US20210308089A1, “METHODS OF TREATING AND/OR PREVENTING VIRAL INFECTIONS AND/OR DISEASES CAUSED BY VIRUSES IN A SUBJECT IN NEED THEREOF” (priority 2020, published 2021):

Test system: patients of the REDUCE-IT and earlier EPA placebo-controlled trials
Experiment: Example 3: adverse events by risk ratio, icosapent ethyl vs placebo (candidate categories; infectious disease terms of interest)
Conditions: for ARR / NNT / Risk Ratio (95% CI) / AR: Cough (AE table) / ARR: Cough (AE table) / NNT: Cough (AE table) / Risk Ratio (95% CI): Cough (AE table): R-I
[1] = Cognitive Decline: Attention disorders and disturbances
[2] = Cognitive Decline: Cognitive and attention disorders and disturbances
[3] = Depression: Depressed mood disorders and disturbances
[4] = Depression: Depressive disorders
[5] = Depression: Depressive disorders - Depression
[6] = Depression: Depressive disorders - Major depression
[7] = Depression: Depressive disorders - Persistent depressive disorder
[8] = Depression: Depressive disorders- Agitated depression
[9] = Depression: Mood alterations - Depressed mood
[10] = Depression: Mood alterations - Depressive symptom
[11] = Depression: Mood alterations with depressive symptoms
[12] = Glomerulonephritis and Nephrotic Syndrome
[13] = Limb Fractures and Dislocations
[14] = NASH+Hepatic Steatosis for NFS >0.675
[15] = Psychosis: Psychotic disorder NEC
[16] = Squamous Cell Carcinoma of Head and Neck
[17] = Systemic Inflammatory Response Syndrome
[18] = first of three Cough lines of Table 46
[19] = second of three Cough lines of Table 46

SMILES: CC/C=C\C/C=C\C/C=C\C/C=C\C/C=C\CCCC(=O)OCC [icosapent ethyl, eicosapentaenoic acid ethyl ester]
- ARR (Bipolar Disease): −0.0%
- NNT (Bipolar Disease): 2045
- Risk Ratio (95% CI) (Bipolar Disease): 0.333 (0.035 to 3.204) 4
- ARR (Blood CPK increased): −0.6%
- NNT (Blood CPK increased): 164
- Risk Ratio (95% CI) (Blood CPK increased): 0.684 (0.485 to 0.964) 2
- ARR (Bone Fractures): 0.0%
- NNT (Bone Fractures): −4088
- Risk Ratio (95% CI) (Bone Fractures): 2.000 (0.181 to 22.053) −3
- ARR (Breast Cancer): 0.0%
- NNT (Breast Cancer): −2389144
- Risk Ratio (95% CI) (Breast Cancer): 1.000 (0.351 to 2.849) −1
- ARR (CKD): 0.1%
- NNT (CKD): −680
- Risk Ratio (95% CI) (CKD): 1.123 (0.766 to 1.646) −1
- ARR (COPD): 0.2%
- NNT (COPD): −453
- Risk Ratio (95% CI) (COPD): 1.084 (0.837 to 1.405) −1
- ARR (Chrohn's Disease): −0.0%
- NNT (Chrohn's Disease): 2045
- Risk Ratio (95% CI) (Chrohn's Disease): 0.333 (0.035 to 3.204) 4
- ARR (Chronic Lymphycytic Leukaemia): 0.1%
- NNT (Chronic Lymphycytic Leukaemia): −1363
- Risk Ratio (95% CI) (Chronic Lymphycytic Leukaemia, case counts given): [3 drug vs 0 PBO]
- ARR [1]: 0.0%
- NNT [1]: −8362005
- Risk Ratio (95% CI) [1]: 1.000 (0.141 to 7.097) −1
- ARR [2]: 0.0%
- NNT [2]: −8362005
- Risk Ratio (95% CI) [2]: 1.000 (0.141 to 7.097) −1
- Risk Ratio (95% CI) (Cognitive Decline: Cognitive disturbances): [No cases in study]
- ARR (Colon Cancer): 0.1%
- NNT (Colon Cancer): −1022
- Risk Ratio (95% CI) (Colon Cancer): 2.000 (0.603 to 6.638) −3
- ARR (Cough): −0.2%
- NNT (Cough): 455
- Risk Ratio (95% CI) (Cough): 0.526 (0.245 to 1.131) 3
- Risk Ratio (95% CI) (Cystic Fibrosis): [No cases in study]
- ARR (Decreased Appetite): 0.5%
- NNT (Decreased Appetite): −215
- Risk Ratio (95% CI) (Decreased Appetite): 2.584 (1.329 to 5.024) −4
- ARR (Deep Venous Thromboembolism): −0.1%
- NNT (Deep Venous Thromboembolism): 1364
- Risk Ratio (95% CI) (Deep Venous Thromboembolism): 0.625 (0.205 to 1.909) 2
- ARR [3]: 0.3%
- NNT [3]: −340
- Risk Ratio (95% CI) [3]: 1.106 (0.861 to 1.422) −1
- ARR [4]: 0.3%
- NNT [4]: −314
- Risk Ratio (95% CI) [4]: 1.123 (0.867 to 1.454) −1
- ARR [5]: 0.2%
- NNT [5]: −408
- Risk Ratio (95% CI) [5]: 1.097 (0.843 to 1.428) −1
- ARR [6]: 0.0%
- NNT [6]: −2044
- Risk Ratio (95% CI) [6]: 3.001 (0.312 to 28.836) −4
- ARR [7]: 0.0%
- NNT [7]: −4088
- Risk Ratio (95% CI) [7]: 2.000 (0.181 to 22.053) −3
- ARR [8]: 0.0%
- NNT [8]: −2044
- Risk Ratio (95% CI) (Depression: Depressive disorders- Agitated depression, case counts given): [2 drug vs 0 PBO]
- ARR [9]: 0.0%
- NNT [9]: −3344802
- Risk Ratio (95% CI) [9]: 1.000 (0.290 to 3.452) −1
- ARR [10]: −0.0%
- NNT [10]: 4091
- Risk Ratio (95% CI) [10]: 0.500 (0.045 to 5.513) 3
- ARR [11]: −0.0%
- NNT [11]: 4096
- Risk Ratio (95% CI) [11]: 0.857 (0.288 to 2.549) 1
- ARR (Dermatitis psoriasiform): 0.0%
- NNT (Dermatitis psoriasiform): −4089
- Risk Ratio (95% CI) (Dermatitis psoriasiform, case counts given): [1 drug vs 0 PBO]
- ARR (Dermatitis, allergic): −0.2%
- NNT (Dermatitis, allergic): 454
- Risk Ratio (95% CI) (Dermatitis, allergic): 0.250 (0.071 to 0.885) 4
- ARR (Diabetic Nephropathy): −0.0%
- NNT (Diabetic Nephropathy): 4100
- Risk Ratio (95% CI) (Diabetic Nephropathy): 0.909 (0.387 to 2.139) 1
- ARR (Dry Eye): 0.1%
- NNT (Dry Eye): −1020
- Risk Ratio (95% CI) (Dry Eye): 1.129 (0.698 to 1.828) −1
- ARR (ESRD): −0.0%
- NNT (ESRD): 4092
- Risk Ratio (95% CI) (ESRD): 0.667 (0.111 to 3.989) 2
- ARR (Embolism and Thrombosis): 0.1%
- NNT (Embolism and Thrombosis): −1358
- Risk Ratio (95% CI) (Embolism and Thrombosis): 1.064 (0.716 to 1.581) −1
- ARR (Epilepsy): 0.0%
- NNT (Epilepsy): −1.67e+07
- Risk Ratio (95% CI) (Epilepsy): 1.000 (0.063 to 15.986)−1
- ARR (Erectile dysfunction): −0.4%
- NNT (Erectile dysfunction): 232
- Risk Ratio (95% CI) (Erectile dysfunction): 0.784 (0.535 to 1.151) 2
- ARR (Gastric Cancer): 0.0%
- NNT (Gastric Cancer): −4088
- Risk Ratio (95% CI) (Gastric Cancer): 2.000 (0.181 to 22.053) −3
- ARR (Gastroesophageal reflux): −0.1%
- NNT (Gastroesophageal reflux): 682
- Risk Ratio (95% CI) (Gastroesophageal reflux): 0.333 (0.090 to 1.231) 4
- ARR [12]: −0.1%
- NNT [12]: 1023
- Risk Ratio (95% CI) (Glomerulonephritis and Nephrotic Syndrome, case counts given): [0 drug vs 4 PBO]
- ARR (Guttate psoriasis): 0.0%
- NNT (Guttate psoriasis): −4089
- Risk Ratio (95% CI) (Guttate psoriasis, case counts given): [1 drug vs 0 PBO]
- ARR (Hepatitis C): 0.0%
- NNT (Hepatitis C): −4089
- Risk Ratio (95% CI) (Hepatitis C, case counts given): [1 drug vs 0 PBO]
- Risk Ratio (95% CI) (IgA Nephropathy): [No cases in study]
- ARR (Large intestine polyps): −0.2%
- NNT (Large intestine polyps): 511
- Risk Ratio (95% CI) (Large intestine polyps): 0.385 (0.137 to 1.078) 4
- ARR (Leukaemia): 0.0%
- NNT (Leukaemia): −1.67e+07
- Risk Ratio (95% CI) (Leukaemia): 1.000 (0.063 to 15.986) −1
- ARR [13]: −0.1%
- NNT [13]: 1024
- Risk Ratio (95% CI) [13]: 0.883 (0.541 to 1.439) 1
- ARR (Liver Cancer): 0.0%
- NNT (Liver Cancer): −4088
- Risk Ratio (95% CI) (Liver Cancer): 2.000 (0.181 to 22.053) −3
- ARR (Lung Cancer): −0.1%
- NNT (Lung Cancer): 1023
- Risk Ratio (95% CI) (Lung Cancer): 0.637 (0.247 to 1.640) 2
- ARR (Lupus): −0.0%
- NNT (Lupus): 4090
- Risk Ratio (95% CI) (Lupus, case counts given): [0 drug vs 1 PBO]
- ARR (Macular Degeneration): 0.1%
- NNT (Macular Degeneration): −1361
- Risk Ratio (95% CI) (Macular Degeneration): 1.188 (0.612 to 2.306) −1
- Risk Ratio (95% CI) (Male Infertility): [No cases in study]
- ARR (Migraine): 0.2%
- NNT (Migraine): −584
- Risk Ratio (95% CI) (Migraine): 2.751 (0.877 to 8.631) −4
- Risk Ratio (95% CI) (Mucositis): [No cases in study]
- ARR (Multiple Sclerosis): −0.0%
- NNT (Multiple Sclerosis): 4090
- Risk Ratio (95% CI) (Multiple Sclerosis, case counts given): [0 drug vs 1 PBO]
- ARR (Muscle spasms): −1.1%
- NNT (Muscle spasms): 95
- Risk Ratio (95% CI) (Muscle spasms): 0.579 (0.421 to 0.795) 3
- ARR (NASH): −0.1%
- NNT (NASH): 818
- Risk Ratio (95% CI) (NASH): 0.167 (0.020 to 1.384) 5
- ARR (NASH for b/l NFS >0.675): −0.4%
- NNT (NASH for b/l NFS >0.675): 273
- Risk Ratio (95% CI) (NASH for b/l NFS >0.675): 0.252 (0.028 to 2.251) 4
- ARR [14]: −0.5%
- NNT [14]: 209
- Risk Ratio (95% CI) [14]: 0.740 (0.342 to 1.601) 2
- ARR (Nephrolithiasis): 0.1%
- NNT (Nephrolithiasis): −1017
- Risk Ratio (95% CI) (Nephrolithiasis): 1.050 (0.777 to 1.419) −1
- ARR (Nephropathies): −0.2%
- NNT (Nephropathies): 455
- Risk Ratio (95% CI) (Nephropathies): 0.679 (0.380 to 1.213)2
- ARR (Nephrotic Syndrome): −0.0%
- NNT (Nephrotic Syndrome): 4090
- Risk Ratio (95% CI) (Nephrotic Syndrome, case counts given): [0 drug vs 1 PBO]
- Risk Ratio (95% CI) (PMS/Dysmenorrhea): [No cases in study]
- ARR (PTSD): −0.0%
- NNT (PTSD): 4092
- Risk Ratio (95% CI) (PTSD): 0.667 (0.111 to 3.989) 2
- ARR (Pancreatic Cancer): 0.1%
- NNT (Pancreatic Cancer): −1022
- Risk Ratio (95% CI) (Pancreatic Cancer): 5.001 (0.585 to 42.789) −5
- ARR (Periodontitis): 0.0%
- NNT (Periodontitis): −2044
- Risk Ratio (95% CI) (Polycystic Ovarian Syndrome): [No cases in study]
- ARR (Psoriasis): 0.3%
- NNT (Psoriasis): −341
- Risk Ratio (95% CI) (Psoriasis): 1.750 (0.949 to 3.230) −3
- ARR (Psoriatic Conditions): 0.3%
- NNT (Psoriatic Conditions): −292
- Risk Ratio (95% CI) (Psoriatic Conditions): 1.875 (1.024 to 3.435) −3
- ARR [15]: −0.0%
- NNT [15]: 4091
- Risk Ratio (95% CI) [15]: 0.500 (0.045 to 5.513) 3
- Risk Ratio (95% CI) (Renal Transplant): [No cases in study]
- ARR (Rheumatoid Arthritis): −0.1%
- NNT (Rheumatoid Arthritis): 1363
- Risk Ratio (95% CI) (Rheumatoid Arthritis, case counts given): [0 drug vs 3 PBO]
- ARR (Schizophrenia NEC): −0.0%
- NNT (Schizophrenia NEC): 4091
- Risk Ratio (95% CI) (Schizophrenia NEC): 0.500 (0.045 to 5.513) 3
- ARR (Sepsis): −0.1%
- NNT (Sepsis): 682
- Risk Ratio (95% CI) (Sepsis): 0.807 (0.477 to 1.364) 1
- Risk Ratio (95% CI) (Sickle Cell Disease): [No cases in study]
- ARR [16]: −0.0%
- NNT [16]: 4090
- Risk Ratio (95% CI) (Squamous Cell Carcinoma of Head and Neck, case counts given): [0 drug vs 1 PBO]
- ARR [17]: −0.1%
- NNT [17]: 682
- Risk Ratio (95% CI) [17]: 0.143 (0.018 to 1.161) 5
- ARR (Ulcerative Colitis): −0.0%
- NNT (Ulcerative Colitis): 4090
- Risk Ratio (95% CI) (Ulcerative Colitis, case counts given): [0 drug vs 1 PBO]
- ARR (Wheezing): −0.3%
- NNT (Wheezing): 315
- Risk Ratio (95% CI) (Wheezing): 0.639 (0.379 to 1.076) 2
- AR: Cough (AE table) [18]: 1,5%
- ARR: Cough (AE table) [18]: 0.9%
- NNT: Cough (AE table) [18]: −112
- Risk Ratio (95% CI): Cough (AE table) [18]: 1.928 (0.692 to 5.373) −3
- AR: Cough (AE table) [19]: 0.4%
- ARR: Cough (AE table) [19]: −0.2%
- NNT: Cough (AE table) [19]: 455
- Risk Ratio (95% CI): Cough (AE table) [19]: 0.526 (0.245 to 1.131) 3
- Severe SIRS: RR (vs placebo, p value 0.06): approximately 0.17
- Systemic inflammatory response: risk ratio (RR) (vs placebo, p-value 0.0338): 0.143
